US7741280B2, “Multimeric molecules, the preparation method thereof and use of same for the preparation of medicaments” (Centre National de la Recherche Scientifique, priority 2002, dated 2010)
Where a SMILES comes first, the peptide text is derived from it. Where no end group is shown, it is not given here. Side-chain parts run from the residue outwards. [ ]: non-standard residue; d: D form. β3hK = NCCCC[C@H](N)CC(=O)O; Ahx = NCCCCCC(=O)O

Legend:
[1] = biological target: T1, CD40-CD40L interaction (Homo sapiens, UniProt P25942); assay: Expression of CD95 induced by CD40L on BL41 cells cultured with 3T6-CD40L fibroblasts (flow cytometry); type: cell-based; conditions: for % of inhibition of the expression of CD95 induced by CD40L: BL41 + 3T6-CD40L, 48 hours; for effect on the expression of CD95 induced by CD40L (in words): BL41 cells in the presence of 3T6-CD40L cells, no concentration stated
T1 construct: they receive a signal via the CD40 molecule, which they express in a constitutive manner; endogenous in cells; host or cells: BL41 Burkitt's lymphoma cells (endogenous CD40), co-cultured with 3T6 fibroblasts transfected with CD40L
Procedure: Then, the affinity of these ligands for the CD40 molecule is evaluated using a biosensor (BIAcore™). The agonist or antagonist effect of the ligands was tested using two simple biological tests. In the first, the expression of the membranous molecule CD95 by transformed B cells (Burkitt's lymphoma) is studied after activation by the CD40-CD40L interaction (Schattner et al., 1996). In such a model, the CD40L partner is expressed on transfected fibroblasts (3T6-CD40L) (Buelens et al., 1997). The BL41 Burkitt's lymphoma cells are incubated with non-transfected 3T6 fibroblasts (FIGS. 3A and 3C) or with 3T6 fibroblasts transfected by CD40L (FIGS. 3B and 3D). After 48 hours, the expression of CD95 is evaluated by flow cytometry. The expression of CD95 is induced in the presence of CD40L (FIG. 3B). A commercial anti-CD40L antibody inhibits the consequences of the CD40-CD40L interaction (FIG. 3D).
The antagonist effect is evaluated by measurement of the decrease in the expression of CD95 induced by the CD40L in the presence of the different chemical ligands (see Table I). With the help of these tests, the most interesting ligands are chosen to evaluate their activity in vivo and in vitro in more complex models.
The lymphoma B cells express the CD95 molecule when they receive a signal via the CD40 molecule, which they express in a constitutive manner. This signal is generally conveyed by the CD40L (CD154) molecule expressed by another cell. The antagonist ligands inhibit the binding of CD40 on CD40L and thus […] the expression of CD95. The agonist ligands copy the CD40L molecule and induce the expression of CD95 even in the absence of the cell expressing CD40L.
The BL41 Burkitt's lymphoma cells (5.10^5/ml) are cultured in the presence of 3T6 fibroblasts (10^5/ml) transfected (3T6-CD40L) or not transfected with CD40L (3T6), and treated with mitomycin to stop their proliferation. The ligands are added at the start of the culture at the chosen concentration. After culture for 48 hours, expression of the CD95 molecule is measured by flow cytometry. The BL41 cells are distinguished from the fibroblasts using an anti-CD19 antibody (specific marker of the B cells).

[2] = biological target: T1, CD40-CD40L interaction; assay: as above; type: cell-based; conditions: concentration of 50 μM
[3] = tested on: BL41 Burkitt's lymphoma cells; assay: Inhibition of proliferation of BL41 cells (incorporation of tritiated thymidine); type: cell-based; conditions: 24 hours culture, FIG. 4A, 50 μM to 50 nM
Procedure: Tritiated thymidine was added at a concentration of 1 μci/well (0.8.10^5 cells/well) for the last 8 hours of culture and the incorporation of tritiated thymidine measured using a gaseous scintillation β counter.
(§1) The second test is based on the property of certain B lymphomas to cease proliferation and enter apoptosis during the bridging of their membranous CD40 molecule (Tong et al., 1999). In this test, the BL41 cells are incubated with ligands CD40 and after 24 hours either the inhibition of proliferation of these cells is measured, by studying the incorporation of tritiated thymidine, or the percentage of apoptotic cells is measured with a flow cytometry study (FIGS. 4A and 4B).
(§2) Certain B lymphomas enter apoptosis when their CD40 molecule is bridged by an anti-CD40 antibody or by CD40L which is soluble independently from the CD95 molecule. This induction of apoptosis is expressed as a decrease in proliferation measured by the incorporation of tritiated thymidine. The agonist ligands of CD40 will induce an increase in apoptosis and as a result a decrease in the incorporation of tritiated thymidine.
The BL41 Burkitt's lymphoma cells (4.10^5/mL) are cultured in the presence of the different ligands at the chosen concentration. After 24 hours, the cells are either incubated for 8 hours with tritiated thymidine (1 μci/well) to measure the proliferation or are labelled with Annexin V-FITC and propidium iodide to evaluate the percentage of apoptotic cells with flow cytometry.

[4] = biological target: T2, human CD40 muIg fusion protein (UniProt P01863+P25942); assay: Biacore3000 surface plasmon resonance study of the CD40/CD40L interaction and the ligands; type: binding; conditions: in the presence of 100 nM of CD40L
T2 construct: purchased ANCELL Corporation, Bayport, Minn
Source text: The Biacore3000 is a device which allows the interactions between two molecules to be studied, based on the surface plasmon resonance. It allows measurement in real time, and therefore allows the kinetics of interaction (association and disassociation) of an analyte (which is in an injected solution) and of a ligand (immobilised on a microchip supporting the measurement) to be monitored. The kinetic measurements at different concentrations of analyte allow calculation of the affinity constants of the interaction between the ligand and the analytes. The microchip contains four cells for different measurements, which allows direct comparison of a reference cell on which a protein which is not pertinent (protein which has no affinity with the ligand studied), but close to the ligand is immobilised with the cell on which the ligand is immobilised.
Rabbit antibodies directed against the constant region of mouse immunoglobulins were immobilized on a microchip. In the reference cell a monoclonal mouse antibody of isotype IgG2a (LG112) at 40 nM is immobilized with a flow of 5 μL/min for 2 minutes; in the cell of the ligand the recombinant CD40 associated with the constant region of the mouse IgG2a heavy chain (human CD40 muIg fusion protein, ANCELL Corporation, Bayport, Minn.) is immobilized under the same conditions.
On the two cells (reference and ligand), the CD40L (human CD154 muCD8 fusion protein, ANCELL Corporation) at different concentrations or the CD40L at a concentration of 1 μM or of 125 nM, are injected, as analyte, in the presence of different concentrations of ligands. The flow in the presence of the analytes is 10 μL/min for 5 minutes to study the association and, in the absence of analytes, the conditions are the same to study the dissociation.
In order to regenerate the cells (i.e. remove all the proteins adsorbed in a non-covalent manner), a solution of 10 mM of HCl is injected at 5 μL/min for 1 minute. The cells are then ready for another analysis.

[5] = tested on: BL41 Burkitt's lymphoma cells; assay: Apoptosis of BL41 cells (Annexin V-FITC / propidium iodide flow cytometry); type: cell-based; conditions: 24 hours culture, FIG. 4B, 50 to 6 μM
Procedure: Apoptosis is measured by flow cytometry after labelling with annexin V FITC and propidium iodide. Cells labelled with annexin V alone or with annexin V and propidium iodide are considered apoptotic. The percentage of specific apoptosis is calculated by the following formula: [(% apoptosis with ligand−% apoptosis without ligand)/(100−% apoptosis without ligand)]×100
as §1, §2
The BL41 Burkitt's lymphoma cells (4.10^5/mL) are cultured in the presence of the different ligands at the chosen concentration. […]

[6] = biological target: T3, human CD40 muIg fusion protein (recombinant CD40 associated with the constant region of the mouse IgG2a heavy … (human; mouse, UniProt P25942 21-193, limits assumed); assay: SPR (Biacore 3000), inhibition of the binding of 100 nM CD40L to captured CD40 muIg
T3 construct: Bought reagent; Captured on the Biacore chip through rabbit anti-mouse immunoglobulin antibodies; not shown: constant region of the mouse IgG2a heavy chain
Procedure: (§3) Rabbit antibodies directed against the constant region of mouse immunoglobulins were immobilized on a microchip. In the reference cell a monoclonal mouse antibody of isotype IgG2a (LG112) at 40 nM is immobilized with a flow of 5 µL/min for 2 minutes; in the cell of the ligand the recombinant CD40 associated with the constant region of the mouse IgG2a heavy chain (human CD40 muIg fusion protein, ANCELL Corporation, Bayport, Minn.) is immobilized under the same conditions.
(§4) The flow in the presence of the analytes is 10 µL/min for 5 minutes to study the association and, in the absence of analytes, the conditions are the same to study the dissociation.
(§5) The association of L4, L7 (and of its derivatives), L8, L9 L11 and L12 was studied in the presence of 100 nM of CD40L. Only the L4 and L9 molecules bind to CD40 and displace CD40L. The kinetic analysis in the presence of 40 and 80 nM of L4 produced an equilibrium constant for L4 of 180 nM.

[7] = biological target: T3, human CD40 muIg fusion protein …; assay: SPR (Biacore 3000), kinetic analysis with 40 and 80 nM L4 in the presence of 100 nM CD40L over captured CD40 muIg
Procedure: as §3, §4, §5

[8] = biological target: T3, human CD40 muIg fusion protein …; assay: SPR (Biacore 3000), kinetic analysis with 2.5 µM L3 in the presence of 125 nM CD40L over captured CD40 muIg
Procedure: as §3, §4

T1 sequence (P25942 21-277): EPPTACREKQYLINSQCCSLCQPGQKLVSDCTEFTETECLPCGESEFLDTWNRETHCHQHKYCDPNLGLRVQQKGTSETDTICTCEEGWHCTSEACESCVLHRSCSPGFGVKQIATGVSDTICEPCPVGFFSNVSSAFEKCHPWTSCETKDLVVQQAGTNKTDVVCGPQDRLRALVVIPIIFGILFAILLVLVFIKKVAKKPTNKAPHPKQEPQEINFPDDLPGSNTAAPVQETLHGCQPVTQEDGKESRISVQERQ
T3 sequence (P25942 21-193 limits assumed): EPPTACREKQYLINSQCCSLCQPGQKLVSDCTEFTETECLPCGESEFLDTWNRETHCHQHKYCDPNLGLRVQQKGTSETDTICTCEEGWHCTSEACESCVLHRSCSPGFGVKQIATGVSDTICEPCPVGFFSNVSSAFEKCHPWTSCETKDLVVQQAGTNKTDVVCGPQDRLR
T2 sequence (P25942+P01863 fused): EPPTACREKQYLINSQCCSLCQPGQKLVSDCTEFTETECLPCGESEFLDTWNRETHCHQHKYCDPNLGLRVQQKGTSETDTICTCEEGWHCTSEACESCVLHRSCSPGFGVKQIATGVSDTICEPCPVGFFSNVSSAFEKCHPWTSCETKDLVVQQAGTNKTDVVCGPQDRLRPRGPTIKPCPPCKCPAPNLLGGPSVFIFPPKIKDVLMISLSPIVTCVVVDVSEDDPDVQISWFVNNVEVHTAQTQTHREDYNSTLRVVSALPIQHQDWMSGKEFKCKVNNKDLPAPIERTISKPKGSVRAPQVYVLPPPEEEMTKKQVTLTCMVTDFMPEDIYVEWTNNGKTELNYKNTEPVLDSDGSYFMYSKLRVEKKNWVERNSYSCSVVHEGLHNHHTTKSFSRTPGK

C[C@H]1NC(=O)[C@H](CCCCNC(=O)CCCCCNC(=O)[C@H](Cc2ccc(O)cc2)NC(=O)[C@H](Cc2ccc(O)cc2)NC(=O)CNC(=O)[C@@H](N)CCCCN)NC(=O)[C@@H](C)NC(=O)[C@H](CCCCNC(=O)CCCCCNC(=O)[C@H](Cc2ccc(O)cc2)NC(=O)[C@H](Cc2ccc(O)cc2)NC(=O)CNC(=O)[C@@H](N)CCCCN)NC(=O)[C@@H](C)NC(=O)[C@H](CCCCNC(=O)CCCCCNC(=O)[C@H](Cc2ccc(O)cc2)NC(=O)[C@H](Cc2ccc(O)cc2)NC(=O)CNC(=O)[C@@H](N)CCCCN)NC1=O [L4] (cyclo(K([Ahx-Tyr-Tyr-Gly-Lys])[dA]K([Ahx-Tyr-Tyr-Gly-Lys])[dA]K([Ahx-Tyr-Tyr-Gly-Lys])[dA]))
% of inhibition of the expression of CD95 induced by CD40L ([1]; ligand 0.5 μM): 19% | % of inhibition of the expression of CD95 induced by CD40L ([1]; ligand 5 μM): 36% | % of inhibition of the expression of CD95 induced by CD40L ([1]; ligand 10 μM): 40% | % of inhibition of the expression of CD95 induced by CD40L ([1]; ligand 50 μM): 22% | cell mortality [2]: substantial cell mortality

NCCCC[C@H](N)C(=O)NCC(=O)N[C@@H](Cc1ccc(O)cc1)C(=O)N[C@@H](Cc1ccc(O)cc1)C(=O)NCCCCCC(=O)NCCCOCC(COCCCNC(=O)CCCCCNC(=O)[C@H](Cc1ccc(O)cc1)NC(=O)[C@H](Cc1ccc(O)cc1)NC(=O)CNC(=O)[C@@H](N)CCCCN)(COCCCNC(=O)CCCCCNC(=O)[C@H](Cc1ccc(O)cc1)NC(=O)[C@H](Cc1ccc(O)cc1)NC(=O)CNC(=O)[C@@H](N)CCCCN)NC(=O)CCC(N)=O [L7]
effect on the expression of CD95 induced by CD40L (in words) [1]: no effect | % of inhibition of the expression of CD95 induced by CD40L ([1]; ligand 0.5 μM): 0% | % of inhibition of the expression of CD95 induced by CD40L ([1]; ligand 5 μM): 0% | % of inhibition of the expression of CD95 induced by CD40L ([1]; ligand 50 μM): 0% | inhibition of the proliferation of BL41 cells (in words) [3]: only have a small or no effect | binding to CD40 and displacement of CD40L (in words) [4]: Only the L4 and L9 molecules bind to CD40

L4a: same core molecule as L4 but only 2 examples of the peptide sequence (chain [dA]K[dA]K[dA]K; peptide H-KGYY[Ahx]; also: two copies of chain 2 linked via Ahx to two Lys ε-amines of chain 1, which Lys not given here, head-to-tail to a chain's N/C-terminus)
effect on the expression of CD95 induced by CD40L (in words) [1]: only very weakly inhibits | % of inhibition of the expression of CD95 induced by CD40L ([1]; ligand 0.5 μM): 0% | % of inhibition of the expression of CD95 induced by CD40L ([1]; ligand 5 μM): 8% | % of inhibition of the expression of CD95 induced by CD40L ([1]; ligand 50 μM): 13% | apoptosis of BL41 cells (in words) [5]: very weak apoptosis

L11: constituted by the single peptide sequence (KGYY-{Ahx-OH})
apoptosis of BL41 cells (in words) [5]: no effect | binding to CD40 and displacement of CD40L (in words) [4]: Only the L4 and L9 molecules bind to CD40

B1: Compound L4 (ligand L4): cyclic core structure with 3 examples of the peptide sequence mimicking the CD40-CD40L interface (peptide)
chain: [dA]K[dA]K[dA]K
peptide: H-KGYY[Ahx]
modifications: also: three H-KGYY-Ahx- arms, one on the epsilon-amine of each core Lys, head-to-tail to a chain's N/C-terminus
IC50 [6]: 80 nM | Kd [7]: 180 nM

B2: Compound L9 (ligand L9): cyclic core structure different from that of L4 with 3 examples of the same peptide sequence (peptide)
chain: [β3hK]-[β3hK]-[β3hK]
peptide: H-KGYY[Ahx]
modifications: also: three H-KGYY-Ahx- arms, one on each side-chain amine of the core, head-to-tail to a chain's N/C-terminus
IC50 [6]: < 50 nM

B3: Compound L3 (ligand L3) (peptide)
chain: KKKKA
peptide: KGYY
modifications: also: core Lys joined through epsilon-amines (isopeptide bonds), KGYY arms on free amines of core Lys, Tyr C-terminus amide-linked directly to core amine, no spacer
notes: also called linear ligand
Kd [8]: 10000 nM
